Values after ≈ are worked out from the molar mass of the structure shown. Values belong to the molecule of their own block, whether it stands above or below them.
Columns and labels:
Test in all cases: in vitro antibacterial evaluation, MIC by broth dilution
Type in all cases: cell-based
[1] = test system: Enterococcus sp.; details: broth dilution, 18 hours at 35° C.
Outline: (§1)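 Test organisms, which included recent clinical isolates resistant to methicillin, penicillin and/or vancomycin, were inoculated at 5×10^5 CFU/mL into Muller-Hinton II […] containing antibiotic at 64-0.06 μg/mL. Minimum inhibitory concentrations were then read as the lowest level inhibiting growth.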

[2] = test system: Streptococcus sp.; details: broth dilution, 18 hours at 35° C.
Outline: as §1

[3] = test system: Staphylococcus sp.; details: broth dilution, 18 hours at 35° C.; for MIC Staphylococcus aureus (ATCC 29213): strain ATCC 29213; for MIC Staphylococcus aureus (GC 1131): strain GC 1131; for MIC Staphylococcus aureus (GC 4541): strain GC 4541; for MIC Staphylococcus aureus (GC 4542): strain GC 4542; for MIC Staphylococcus aureus (GC 4544): strain GC 4544; for MIC Staphylococcus aureus (GC 4545): strain GC 4545
Outline: as §1

[4] = test system: Escherichia coli; details: 18 hours at 35° C.
Outline: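 MIC is the lowest antibiotic concentration (tested 64-0.06 μg/mL) preventing growth of a 5×10^5 CFU/mL inoculum. Determined by broth dilution in Mueller-Hinton II medium following NCCLS standard M7-A2.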

[5] = Enterococcus faecalis (ATCC 29212)
[6] = Enterococcus faecalis (GC 2242)
[7] = Enterococcus faecalis (GC 4552)
[8] = Enterococcus faecalis (GC 4553)
[9] = Enterococcus faecalis (GC 4554)
[10] = Streptococcus agalactiae (GC 4564)
[11] = Streptococcus pneumoniae (GC 4565)
[12] = Streptococcus pyogenes (ID-3187)

- MIC Enterococcus avium (GC 4558) ([1]; Enterococcus avium (GC 4558)): 4 µg/mL (≈ 2.69 µM)
- MIC Enterococcus faecalis (ATCC 29212) [1, 5]: 8 µg/mL (≈ 5.37 µM)
- MIC Enterococcus faecalis (GC 2242) [1, 6]: 4 µg/mL (≈ 2.69 µM)
- MIC Enterococcus faecalis (GC 4552) [1, 7]: 8 µg/mL (≈ 5.37 µM)
- MIC Enterococcus faecalis (GC 4553) [1, 8]: 8 µg/mL (≈ 5.37 µM)
- MIC Enterococcus faecalis (GC 4554) [1, 9]: 8 µg/mL (≈ 5.37 µM)
- MIC Enterococcus faecium (GC 2243) ([1]; Enterococcus faecium (GC 2243)): 8 µg/mL (≈ 5.37 µM)
- MIC Enterococcus faecium (GC 4556) ([1]; Enterococcus faecium (GC 4556)): 8 µg/mL (≈ 5.37 µM)
- MIC Enterococcus faecium (GC 4557) ([1]; Enterococcus faecium (GC 4557)): 1 µg/mL (≈ 0.671 µM)
- MIC Enterococcus avium (GC 4558) [1]: 4 µg/mL (≈ 2.69 µM)
- MIC Enterococcus faecalis (ATCC 29212) [1]: 8 µg/mL (≈ 5.37 µM)
- MIC Enterococcus faecalis (GC 2242) [1]: 4 µg/mL (≈ 2.69 µM)
- MIC Enterococcus faecalis (GC 4552) [1]: 8 µg/mL (≈ 5.37 µM)
- MIC Enterococcus faecalis (GC 4553) [1]: 8 µg/mL (≈ 5.37 µM)
- MIC Enterococcus faecalis (GC 4554) [1]: 8 µg/mL (≈ 5.37 µM)
- MIC Enterococcus faecium (GC 2243) [1]: 8 µg/mL (≈ 5.37 µM)
- MIC Enterococcus faecium (GC 4556) [1]: 8 µg/mL (≈ 5.37 µM)
- MIC Enterococcus faecium (GC 4557) [1]: 1 µg/mL (≈ 0.671 µM)
- MIC Streptococcus agalactiae (GC 4564) [2, 10]: 0.25 µg/mL (≈ 0.168 µM)
- MIC Streptococcus pneumoniae (GC 4565) [2, 11]: <0.12 µg/mL
- MIC Streptococcus pyogenes (ID-3187) [2, 12]: 0.25 µg/mL (≈ 0.168 µM)
- MIC Streptococcus agalactiae (GC 4564) [2]: 0.25 µg/mL (≈ 0.168 µM)
- MIC Streptococcus pneumoniae (GC 4565) [2]: <0.12 µg/mL
- MIC Streptococcus pyogenes (ID-3187) [2]: 0.25 µg/mL (≈ 0.168 µM)
- MIC Coagulase Negative Staphylococcus (GC 4547) [3]: 1 µg/mL (≈ 0.671 µM)
- MIC Coagulase Negative Staphylococcus (GC 4548) [3]: 0.5 µg/mL (≈ 0.336 µM)
- MIC Coagulase Negative Staphylococcus (GC 4549) [3]: 0.5 µg/mL (≈ 0.336 µM)
- MIC Coagulase Negative Staphylococcus (GC 4551) [3]: 2 µg/mL (≈ 1.34 µM)
- MIC Coagulase Negative Staphylococcus (ID-3941) [3]: 0.5 µg/mL (≈ 0.336 µM)
- MIC Staphylococcus aureus-SMITH (GC 4543) [3]: 2 µg/mL (≈ 1.34 µM)
- MIC Coagulase Negative Staphylococcus (GC 4547) ([3]; strain GC 4547): 1 µg/mL (≈ 0.671 µM)
- MIC Coagulase Negative Staphylococcus (GC 4548) ([3]; strain GC 4548): 0.5 µg/mL (≈ 0.336 µM)
- MIC Coagulase Negative Staphylococcus (GC 4549) ([3]; strain GC 4549): 0.5 µg/mL (≈ 0.336 µM)
- MIC Coagulase Negative Staphylococcus (GC 4551) ([3]; strain GC 4551): 2 µg/mL (≈ 1.34 µM)
- MIC Coagulase Negative Staphylococcus (ID-3941) ([3]; strain ID-3941): 0.5 µg/mL (≈ 0.336 µM)
- MIC Staphylococcus aureus-SMITH (GC 4543) ([3]; strain SMITH GC 4543): 2 µg/mL (≈ 1.34 µM)
- MIC Staphylococcus aureus (ATCC 29213) [3]: 1 µg/mL (≈ 0.671 µM)
- MIC Staphylococcus aureus (GC 1131) [3]: 2 µg/mL (≈ 1.34 µM)
- MIC Staphylococcus aureus (GC 4541) [3]: 1 µg/mL (≈ 0.671 µM)
- MIC Staphylococcus aureus (GC 4542) [3]: 2 µg/mL (≈ 1.34 µM)
- MIC Staphylococcus aureus (GC 4544) [3]: 2 µg/mL (≈ 1.34 µM)
- MIC Staphylococcus aureus (GC 4545) [3]: 1 µg/mL (≈ 0.671 µM)
- MIC Escherichia coli (ATCC 25922) [4]: >128 µg/mL
Structure (SMILES): CC(c1ccccc1)C1NC(=O)CNC(=O)C(CO)NC(=O)C(C(O)C2CNC(=N)N2C2OC(CO)C(O)C(O)C2O)NC(=O)C(C(O)C2CNC(=N)N2)NC(=O)C(Cc2ccc(OC3OC(COC(=O)C(c4ccccc4)c4ccccc4)C(OC4OC(CO)C(O)C(O)C4O)C(O)C3O)cc2)NC1=O (stereo not drawn) [Example 96b, Cyclo[glycyl-β-methylphenylalanyl-O-[6-O-(diphenylacetyl)-4-O-hexopyranosylhexopyranosyl]tyrosyl-3-(2-iminoimidazolidin-4-yl)seryl-3-(3-hexopyranosyl-2-iminoimidazolidin-4-yl)serylseryl]]
- MIC Staphylococcus haemolyticus (GC 4546) [3]: 1 µg/mL (≈ 0.671 µM)
- MIC Staphylococcus haemolyticus (GC 4546) ([3]; strain GC 4546): 1 µg/mL (≈ 0.671 µM)

- MIC Enterococcus avium (GC 4558) ([1]; Enterococcus avium (GC 4558)): 16 µg/mL (≈ 11.3 µM)
- MIC Enterococcus faecalis (ATCC 29212) [1, 5]: 16 µg/mL (≈ 11.3 µM)
- MIC Enterococcus faecalis (GC 2242) [1, 6]: 16 µg/mL (≈ 11.3 µM)
- MIC Enterococcus faecalis (GC 4552) [1, 7]: 32 µg/mL (≈ 22.5 µM)
- MIC Enterococcus faecalis (GC 4553) [1, 8]: 16 µg/mL (≈ 11.3 µM)
- MIC Enterococcus faecalis (GC 4554) [1, 9]: 32 µg/mL (≈ 22.5 µM)
- MIC Enterococcus faecium (GC 2243) ([1]; Enterococcus faecium (GC 2243)): 16 µg/mL (≈ 11.3 µM)
- MIC Enterococcus faecium (GC 4556) ([1]; Enterococcus faecium (GC 4556)): 16 µg/mL (≈ 11.3 µM)
- MIC Enterococcus faecium (GC 4557) ([1]; Enterococcus faecium (GC 4557)): 4 µg/mL (≈ 2.81 µM)
- MIC Enterococcus avium (GC 4558) [1]: 16 µg/mL (≈ 11.3 µM)
- MIC Enterococcus faecalis (ATCC 29212) [1]: 16 µg/mL (≈ 11.3 µM)
- MIC Enterococcus faecalis (GC 2242) [1]: 16 µg/mL (≈ 11.3 µM)
- MIC Enterococcus faecalis (GC 4552) [1]: 32 µg/mL (≈ 22.5 µM)
- MIC Enterococcus faecalis (GC 4553) [1]: 16 µg/mL (≈ 11.3 µM)
- MIC Enterococcus faecalis (GC 4554) [1]: 32 µg/mL (≈ 22.5 µM)
- MIC Enterococcus faecium (GC 2243) [1]: 16 µg/mL (≈ 11.3 µM)
- MIC Enterococcus faecium (GC 4556) [1]: 16 µg/mL (≈ 11.3 µM)
- MIC Enterococcus faecium (GC 4557) [1]: 4 µg/mL (≈ 2.81 µM)
- MIC Streptococcus agalactiae (GC 4564) [2, 10]: 2 µg/mL (≈ 1.41 µM)
- MIC Streptococcus pneumoniae (GC 4565) [2, 11]: <0.5 µg/mL
- MIC Streptococcus pyogenes (ID-3187) [2, 12]: 1 µg/mL (≈ 0.703 µM)
- MIC Streptococcus agalactiae (GC 4564) [2]: 2 µg/mL (≈ 1.41 µM)
- MIC Streptococcus pneumoniae (GC 4565) [2]: <0.5 µg/mL
- MIC Streptococcus pyogenes (ID-3187) [2]: 1 µg/mL (≈ 0.703 µM)
- MIC Coagulase Negative Staphylococcus (GC 4547) [3]: 4 µg/mL (≈ 2.81 µM)
- MIC Coagulase Negative Staphylococcus (GC 4548) [3]: 4 µg/mL (≈ 2.81 µM)
- MIC Coagulase Negative Staphylococcus (GC 4549) [3]: 2 µg/mL (≈ 1.41 µM)
- MIC Coagulase Negative Staphylococcus (GC 4551) [3]: 8 µg/mL (≈ 5.63 µM)
- MIC Coagulase Negative Staphylococcus (ID-3941) [3]: 2 µg/mL (≈ 1.41 µM)
- MIC Staphylococcus aureus-SMITH (GC 4543) [3]: 4 µg/mL (≈ 2.81 µM)
- MIC Coagulase Negative Staphylococcus (GC 4547) ([3]; strain GC 4547): 4 µg/mL (≈ 2.81 µM)
- MIC Coagulase Negative Staphylococcus (GC 4548) ([3]; strain GC 4548): 4 µg/mL (≈ 2.81 µM)
- MIC Coagulase Negative Staphylococcus (GC 4549) ([3]; strain GC 4549): 2 µg/mL (≈ 1.41 µM)
- MIC Coagulase Negative Staphylococcus (GC 4551) ([3]; strain GC 4551): 8 µg/mL (≈ 5.63 µM)
- MIC Coagulase Negative Staphylococcus (ID-3941) ([3]; strain ID-3941): 2 µg/mL (≈ 1.41 µM)
- MIC Staphylococcus aureus-SMITH (GC 4543) ([3]; strain SMITH GC 4543): 4 µg/mL (≈ 2.81 µM)
- MIC Staphylococcus aureus (ATCC 29213) [3]: 4 µg/mL (≈ 2.81 µM)
- MIC Staphylococcus aureus (GC 1131) [3]: 4 µg/mL (≈ 2.81 µM)
- MIC Staphylococcus aureus (GC 4541) [3]: 4 µg/mL (≈ 2.81 µM)
- MIC Staphylococcus aureus (GC 4542) [3]: 4 µg/mL (≈ 2.81 µM)
- MIC Staphylococcus aureus (GC 4544) [3]: 4 µg/mL (≈ 2.81 µM)
- MIC Staphylococcus aureus (GC 4545) [3]: 4 µg/mL (≈ 2.81 µM)
- MIC Escherichia coli (ATCC 25922) [4]: >64 µg/mL
Structure (SMILES): CCCC(CCC)C(=O)OCC1OC(Oc2ccc(CC3NC(=O)C(C(C)c4ccccc4)NC(=O)CNC(=O)C(CO)NC(=O)C(C(O)C4CNC(=N)N4C4OC(CO)C(O)C(O)C4O)NC(=O)C(C(O)C4CNC(=N)N4)NC3=O)cc2)C(O)C(O)C1OC1OC(CO)C(O)C(O)C1O (stereo not drawn) [Example 99b, Cyclo[glycyl-β-methylphenylalanyl-O-[4-O-hexopyranosyl-6-O-(2-propylpentanoyl)hexopyranosyl]tyrosyl-3-(2-iminoimidazolidin-4-yl)seryl-3-(3-hexopyranosyl-2-iminoimidazolidin-4-yl)serylseryl]]
- MIC Staphylococcus haemolyticus (GC 4546) [3]: 4 µg/mL (≈ 2.81 µM)
- MIC Staphylococcus haemolyticus (GC 4546) ([3]; strain GC 4546): 4 µg/mL (≈ 2.81 µM)
